Key:
PD-L1 expression = PD-L1 expression after 5-aza-dC treatment of the CGP NSCLC cell line panel (FIG. 6C, 6D); assay type: cell-based, human
Method: (§1) NSCLC cell lines were procured from American Type Cell Culture (ATCC) or academic sources and cultured in RPMI 1640 medium supplemented with 10% fetal bovine serum (FBS) and 2 mM L-glutamine. Cells were detached for splitting and/or experimental analysis following a PBS wash and incubation with Accutase detachment medium (Sigma). Cells were treated with 0.1 mM trichostatin A (“TSA,” Sigma) and/or 1 ng/mL interferon gamma (IFNγ) for 24 hours and 1 mM 5-azacitidine-dC (5-aza-dC, Sigma), for 3 days qd (i.e., once a day) or 6 days q2d (i.e., every other day).
(§2) Buffer RLT Plus (Qiagen) was used to lyse the cells for RNA and DNA extraction from the same lysate using the AllPrep DNA/RNA Mini Kit (Qiagen). RNA expression was analyzed by microarray on the GeneChip Human Genome U133 Plus 2.0 Array (Affymetrix) by Asuragen, Inc, and by qPCR using TaqMan Gene Expression Assays (Life Technologies). Data was analyzed using Genomics Suite (Partek), Spotfire (TIBCO), JMP (SAS), and IPA (Ingenuity). DNA was analyzed on the INFINIUM® HumanMethylation450 BeadChip (Illumina). DNA was bisulfite-modified using the Zymo DNA Gold Methylation kit (Zymo Research) and amplified with bisulfite specific sequencing primers targeting the CD274 promoter region. PCR products were TA-subcloned and sequenced using standard methods (ABI). ABI sequence files were analyzed using BIQ Analyzer software (C. Bock).
NSCLC cell lines from the Cancer Genome Project (CGP) were used to create a scatter plot directly comparing smoothened CpG1 and CpG5 methylation (M-value) on the X axis and PD-L1 expression (RNA-seq, Log 2-count) on the Y axis. […] PD-L1 baseline expression in these cell lines is highly affected by the level of promoter methylation. The CGP cell lines analyzed in FIG. 6A were then categorized into three methylation groups: (1) low (i.e., low to no methylation at both CpG1 and CpG5), (2) intermediate (i.e., CpG1 or CpG5 site methylated), or (3) high (CpG1 and CpG5 both methylated). These groups were plotted on the X axis, with basal PD-L1 expression by RNA-seq plotted on the Y and median expression shown for each group. […] Group (1) (i.e., low) had the highest median PD-L1 expression, with Group (2) (i.e., intermediate) and Group (3) (i.e., high) methylation groups showing lower median PD-L1 expression.
The cell lines in the CPG NSCLC cell line panel were then treated with 5-aza-dC in order to the effect global demethylation would have on PD-L1 expression in a dataset with a larger number of cell lines. […] Additionally, two cell lines in this panel are known to have been raised from two separate samples from one patient, H1993 (low) and H2073 (intermediate).

PD-L1 RNA expression = PD-L1 RNA expression by qRT-PCR in treated NSCLC cell lines (FIG. 3, 4A); assay type: cell-based, human
Method: as §1, §2
Cells from each of the cell lines were exposed to one of five conditions: (1) no treatment; (2) treatment with 1 mM 5-azacitidine-dC (5-aza-dC, a DNA demethylation agent); (3) treatment with 0.1 mM trichostatin A (TSA, a class I and class II mammalian histone […]); (4) treatment with 1 ng/mL interferon gamma (IFNg); or (5) treatment with a combination of 5-aza-dC, TSA, and IFNg. PD-L1 RNA expression was then measured by qRT-PCR.

Nc1ncn([C@H]2C[C@H](O)[C@@H](CO)O2)c(=O)n1 [5-aza-dC, 5-azacitidine-dC]
PD-L1 expression (PD-L1 expression; CGP NSCLC cell line panel treated with 5-aza-dC): significantly induced
PD-L1 expression (PD-L1 expression; H1993 (low methylation) following 5-aza-dC treatment): no significant changes
PD-L1 expression (PD-L1 expression; H2073 (intermediate methylation) following 5-aza-dC treatment): significant PD-L1 expression induction
induction of methylation-suppressed PD-L1 expression (PD-L1 expression; only Group (3) (high methylation) cell lines, 5-aza-dC): significant induction
PD-L1 RNA expression (PD-L1 RNA expression; A427 (high methylation), 3 days of 5-aza-dC treatment): increased
PD-L1 RNA expression (PD-L1 RNA expression; H322T (medium methylation), 3 days of 5-aza-dC treatment): increased
PD-L1 RNA expression (PD-L1 RNA expression; H661 (high methylation at CpG1 and CpG5), 3 days of 5-aza-dC treatment): increased
PD-L1 RNA expression (PD-L1 RNA expression; LXFL529 (high methylation), 3 days of 5-aza-dC treatment): increased

CC(/C=C/C(=O)NO)=C\[C@@H](C)C(=O)c1ccc(N(C)C)cc1 [TSA, trichostatin A]
PD-L1 RNA expression (PD-L1 RNA expression; H322T only, of H661, LXFL529, A427, H2073, H322T, H1993, 0.1 mM TSA): increase

— patent US11254987B2, “PD-L1 promoter methylation in cancer” (Genentech, Inc., priority 2015, dated 2022)
